Test results reported in publication PMC8371902, “Phase 1 study of M2698, a p70S6K/AKT dual inhibitor, in patients with advanced cancer” (Journal of Hematology & Oncology, 2021).

How the values were obtained:
[1] = Plasma pharmacokinetics of M2698, non-compartmental; type: in vivo, human
Protocol: Plasma PK parameters on days 1 and 15 were calculated using non-compartmental methods.

[2] = in vivo
Text: (§1) A monotherapy population PK model was developed, consisting of a two-compartment model with four absorption transit compartments and first-order elimination (Additional file 1: Table S5).

[3] = test system: phospho-S6 (pS6) in peripheral blood mononuclear cells; test: pS6 in PBMCs by flow cytometry, PK/PD Emax model
Protocol: Pharmacodynamic biomarker analysis consisted of measuring levels of phospho-S6 (pS6) by flow cytometry in peripheral blood mononuclear cells (PBMCs) collected on cycle 1, days 1 and 15 at predose, 2, 4, and 8 h, and at predose on cycles ≥ 2, days 1, 8 and 15; and by immunohistochemistry in tumor biopsies obtained at baseline and on treatment (cycle 2, day 1; from the same tumor when possible).

[4] = test system: phospho-S6 (pS6) in tumor tissue; test: pS6 in tumor biopsies by immunohistochemistry, PK/PD models; type: in vivo, human
Text: Supplementary Table S7. Parameter estimates for pharmacokinetic/ pharmacodynamic models of pS6 in tumor tissue using dose and area under the curve (AUCT, calculated as dose divided by apparent clearance at time of tissue biopsy) as exposure metrics
log-linear regression model of dose – tumor pS6: y ~ slope *log(Dose)
Emax regression model of AUC – tumor pS6: y ~ (Emax *AUC) / (EC50 + AUC)

[5] = Monotherapy population PK model (two-compartment); details: in vivo
Text: as §1

[6] = test system: patients with advanced metastatic cancer; test: Association between PK and safety (electrocardiogram ∆QTcF, fasting glucose); type: in vivo, human
[7] = day 15, monotherapy 110 mg, n=3
[8] = day 15, monotherapy 160 mg, n=5
[9] = day 15, monotherapy 200 mg, n=3
[10] = day 15, monotherapy 240 mg, n=7
[11] = day 15, monotherapy 320 mg, n=6
[12] = day 15, monotherapy 380 mg, n=2

SMILES: NC(=O)c1cccc2c(N[C@H](CN3CCC3)c3ccc(Cl)c(C(F)(F)F)c3)ncnc12 [M2698]
- Cmax, GeoMean (GeoCV%) ([1]; day 15, monotherapy 15 mg, n=3): 136 (16.8) ng/mL
- tmax, median (range) ([1]; day 15, monotherapy 15 mg, n=3): 3.00 (2.97–7.50) hours
- AUC0–τ, Geo mean (GeoCV%) ([1]; day 15, monotherapy 30 mg, n=3): 5410 (17.8) ng∙h/mL
- Accumulation ratio (Cmax), Geo mean (GeoCV%) ([1]; day 15, monotherapy 30 mg, n=3): 3.19 (41.2)
- Cmax, GeoMean (GeoCV%) ([1]; day 15, monotherapy 30 mg, n=3): 279 (14.5) ng/mL
- tmax, median (range) ([1]; day 15, monotherapy 30 mg, n=3): 4.30 (1.93–6.02) hours
- AUC0–τ, Geo mean (GeoCV%) ([1]; day 15, monotherapy 60 mg, n=5): 10,000 (47.7) ng∙h/mL
- Accumulation ratio (Cmax), Geo mean (GeoCV%) ([1]; day 15, monotherapy 60 mg, n=5): 3.03 (60.4)
- Cmax, GeoMean (GeoCV%) ([1]; day 15, monotherapy 60 mg, n=5): 566 (48.5) ng/mL
- tmax, median (range) ([1]; day 15, monotherapy 60 mg, n=5): 5.07 (3.03–7.62) hours
- AUC0–τ, Geo mean (GeoCV%) ([1]; day 15, monotherapy 75 mg, n=4): 9440 (39.6) ng∙h/mL
- Accumulation ratio (Cmax), Geo mean (GeoCV%) ([1]; day 15, monotherapy 75 mg, n=4): 3.02 (3.2)
- Cmax, GeoMean (GeoCV%) ([1]; day 15, monotherapy 75 mg, n=4): 533 (47.5) ng/mL
- tmax, median (range) ([1]; day 15, monotherapy 75 mg, n=4): 4.05 (4.03–5.12) hours
- AUC0–τ, Geo mean (GeoCV%) [1, 7]: 15,500 (46.8) ng∙h/mL
- Accumulation ratio (Cmax), Geo mean (GeoCV%) [1, 7]: 3.38 (55.6)
- Cmax, GeoMean (GeoCV%) [1, 7]: 831 (43.3) ng/mL
- tmax, median (range) [1, 7]: 6.05 (3.00–6.07) hours
- AUC0–τ, Geo mean (GeoCV%) [1, 8]: 23,700 (43.7) ng∙h/mL
- Accumulation ratio (Cmax), Geo mean (GeoCV%) [1, 8]: 2.40 (36.8)
- Cmax, GeoMean (GeoCV%) [1, 8]: 1300 (45.1) ng/mL
- tmax, median (range) [1, 8]: 4.08 (1.93–6.00) hours
- AUC0–τ, Geo mean (GeoCV%) [1, 9]: 28,400 (91.6) ng∙h/mL
- Accumulation ratio (Cmax), Geo mean (GeoCV%) [1, 9]: 3.21 (63.5)
- Cmax, GeoMean (GeoCV%) [1, 9]: 1520 (100.8) ng/mL
- tmax, median (range) [1, 9]: 3.77 (3.50–4.05) hours
- AUC0–τ, Geo mean (GeoCV%) [1, 10]: 31,300 (55.8) ng∙h/mL
- Accumulation ratio (Cmax), Geo mean (GeoCV%) [1, 10]: 2.51 (77.8)
- Cmax, GeoMean (GeoCV%) [1, 10]: 1920 (48.5) ng/mL
- tmax, median (range) [1, 10]: 4.00 (2.95–6.10) hours
- AUC0–τ, Geo mean (GeoCV%) [1, 11]: 39,700 (52.3) ng∙h/mL
- Accumulation ratio (Cmax), Geo mean (GeoCV%) [1, 11]: 2.12 (67.9)
- Cmax, GeoMean (GeoCV%) [1, 11]: 2110 (39.6) ng/mL
- tmax, median (range) [1, 11]: 5.48 (3.57–6.08) hours
- AUC0–τ, Geo mean (GeoCV%) [1, 12]: 41,400 (34.5) ng∙h/mL
- Accumulation ratio (Cmax), Geo mean (GeoCV%) [1, 12]: 2.20 (97.9)
- Cmax, GeoMean (GeoCV%) [1, 12]: 2490 (9.4) ng/mL
- tmax, median (range) [1, 12]: 2.50 (2.00–3.00) hours
- Area under the curve on day 15 ([1]; highest doses of 240–380 mg): > 30,000 ng h/mL
- Pharmacokinetic profile combined with tamoxifen versus monotherapy ([1]; in vivo): similar
- Accumulation on day 15 after repeated doses ([1]; monotherapy): 2.12–3.38 fold
- Apparent oral clearance (CL/f) ([1]; monotherapy): ~ 6 L/h
- Terminal half-life ([1]; monotherapy): ~ 30 h
- Median time to maximum plasma concentration (tmax) ([1]; monotherapy, across doses): 3.08 to 6.28 h
- Dose proportionality of M2698 exposure ([1]; monotherapy, single and multiple administrations): exposure increased proportionally with dose
- M2698 exposure in combination with trastuzumab ([1]; versus monotherapy): relatively higher
- Additive RSV (residual variability), population PK estimate [2]: 3.44
- Proportional RSV (residual variability), population PK estimate [2]: 0.163
- EC50, PK/PD model of pS6 in PBMCs (plasma concentration for 50% inhibition) ([3]; NONMEM estimate): 1643 ng/mL
- Emax, PK/PD model of pS6 in PBMCs ([3]; NONMEM estimate): 0.148
- Inhibition of pS6 levels in PBMCs ([3]; in vivo): dose- and concentration-dependent inhibition
- AUC giving 70% inhibition of pS6 in tumor tissue ([4]; Emax model): 15,174 h.ng/mL
- AUC giving 80% inhibition of pS6 in tumor tissue ([4]; Emax model): 32,087 h.ng/mL
- Dose giving 70% inhibition of pS6 in tumor tissue ([4]; log-linear regression model): ~ 160 mg
- Dose giving 80% inhibition of pS6 in tumor tissue ([4]; log-linear regression model): ~240 mg
- Inhibition of pS6 levels in tumor tissue ([4]; paired biopsies, 28 patients): dose- and concentration-dependent inhibition
- ALB on Vc, population PK estimate [5]: 0.0247
- BSA on Vc, population PK estimate [5]: 1.17
- CL (clearance), population PK estimate [5]: 7.06 L/h
- KA (absorption rate constant), population PK estimate [5]: 2.02 h⁻¹
- Q (flow rate), population PK estimate [5]: 18.0 L/h
- Vc (volume of distribution of the central compartment), population PK estimate [5]: 292 L
- Vp (volume of distribution of the peripheral compartment), population PK estimate [5]: 53.0 L
- Changes in mean electrocardiogram data ([6]; across all cohorts): no clinically relevant changes
- Correlation between exposure and fasting glucose levels ([6]; in vivo): no correlation
